Reference: ChEMBL document CHEMBL1201862, “PubChem BioAssay data set” (2004)
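96-well plates; 48 h exposure; 5 concentrations. Endpoints by linear interpolation between flanking doses. Not reached: highest tested concentration assigned. GI50 marks 50% less growth.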 The source made the active and inactive calls. Cut-off read from the data, not from the text of the source: active = GI50 up to about 1.1 µM and inactive = higher.

Legend:
Assay in all cases: DTP human tumour cell line panel, 48 h
[1] = test system: 786-0
[2] = test system: A498
[3] = test system: A549
[4] = test system: CAKI-1
[5] = test system: CCRF-CEM
[6] = test system: COLO 205
[7] = test system: DU-145
[8] = test system: EKVX
[9] = test system: HCT-116
[10] = test system: HL-60
[11] = test system: HOP-62
[12] = test system: HOP-92
[13] = test system: HT-29
[14] = test system: Hs-578T
[15] = test system: IGROV-1
[16] = test system: K562
[17] = test system: KM12
[18] = test system: LOX IMVI
[19] = test system: M14
[20] = test system: MCF7
[21] = test system: MDA-MB-231
[22] = test system: MDA-MB-435
[23] = test system: MOLT-4
[24] = test system: Malme-3M
[25] = test system: NCI-H226
[26] = test system: NCI-H23
[27] = test system: NCI-H460
[28] = test system: NCI-H522
[29] = test system: NCI/ADR-RES
[30] = test system: OVCAR-3
[31] = test system: OVCAR-4
[32] = test system: OVCAR-5
[33] = test system: PC-3
[34] = test system: RPMI-8226
[35] = test system: RXF 393
[36] = test system: SF-268
[37] = test system: SF-295
[38] = test system: SF-539
[39] = test system: SK-MEL-2
[40] = test system: SK-MEL-5
[41] = test system: SK-OV-3
[42] = test system: SN12C
[43] = test system: SNB-19
[44] = test system: SNB-75
[45] = test system: SR
[46] = test system: SW-620
[47] = test system: T47D
[48] = test system: TK-10
[49] = test system: U-251
[50] = test system: UACC-257
[51] = test system: UACC-62
[52] = test system: UO-31
[53] = test system: ACHN
[54] = test system: HCC 2998
[55] = test system: HCT-15
[56] = test system: OVCAR-8
[57] = test system: SK-MEL-28

SMILES: CCCCCCN1C(=O)CC(=O)N(CCCCCC)S1(=O)=O
- GI50 [1]: 18.5 µM (inactive)
- GI50 [2]: 14.7 µM (inactive)
- GI50 [3]: 35.2 µM (inactive)
- GI50 [4]: 22 µM (inactive)
- GI50 [5]: 21.7 µM (inactive)
- GI50 [6]: 17.9 µM (inactive)
- GI50 [7]: 65.8 µM (inactive)
- GI50 [8]: 20.8 µM (inactive)
- GI50 [9]: 29.6 µM (inactive)
- GI50 [10]: 24.8 µM (inactive)
- GI50 [11]: 18.9 µM (inactive)
- GI50 [12]: 11.6 µM (inactive)
- GI50 [13]: 21.6 µM (inactive)
- GI50 [14]: 22 µM (inactive)
- GI50 [15]: 12.4 µM (inactive)
- GI50 [16]: 40.6 µM (inactive)
- GI50 [17]: 28.1 µM (inactive)
- GI50 [18]: 13.6 µM (inactive)
- GI50 [19]: 32.4 µM (inactive)
- GI50 [20]: 36 µM (inactive)
- GI50 [21]: 17.1 µM (inactive)
- GI50 [22]: 22.3 µM (inactive)
- GI50 [23]: 23.3 µM (inactive)
- GI50 [24]: 23.5 µM (inactive)
- GI50 [25]: 26.6 µM (inactive)
- GI50 [26]: 25.7 µM (inactive)
- GI50 [27]: 31.5 µM (inactive)
- GI50 [28]: 12.9 µM (inactive)
- GI50 [29]: 21.7 µM (inactive)
- GI50 [30]: 21.4 µM (inactive)
- GI50 [31]: 20 µM (inactive)
- GI50 [32]: 19.8 µM (inactive)
- GI50 [33]: 23 µM (inactive)
- GI50 [34]: 24.7 µM (inactive)
- GI50 [35]: 16.4 µM (inactive)
- GI50 [36]: 17.7 µM (inactive)
- GI50 [37]: 18.1 µM (inactive)
- GI50 [38]: 19.8 µM (inactive)
- GI50 [39]: 12.7 µM (inactive)
- GI50 [40]: 19.8 µM (inactive)
- GI50 [41]: 21.8 µM (inactive)
- GI50 [42]: 17.7 µM (inactive)
- GI50 [43]: 41.9 µM (inactive)
- GI50 [44]: 17.9 µM (inactive)
- GI50 [45]: 26.9 µM (inactive)
- GI50 [46]: 19.1 µM (inactive)
- GI50 [47]: 64.3 µM (inactive)
- GI50 [48]: 19.1 µM (inactive)
- GI50 [49]: 17.6 µM (inactive)
- GI50 [50]: 38.4 µM (inactive)
- GI50 [51]: 17.3 µM (inactive)
- GI50 [52]: 1.56 µM (inactive)

SMILES: O=C(O)CCC(NC(=O)c1ccc(OCc2nc3cc(C(F)(F)F)ccc3nc2-c2ccccc2)cc1)C(=O)O (stereo unspecified)
- GI50 [1]: > 100 µM (inactive)
- GI50 [2]: > 100 µM (inactive)
- GI50 [3]: > 100 µM (inactive)
- GI50 [53]: > 100 µM (inactive)
- GI50 [4]: 45.4 µM (inactive)
- GI50 [5]: > 100 µM (inactive)
- GI50 [6]: > 100 µM (inactive)
- GI50 [7]: > 100 µM (inactive)
- GI50 [8]: > 100 µM (inactive)
- GI50 [54]: > 100 µM (inactive)
- GI50 [9]: > 100 µM (inactive)
- GI50 [55]: > 100 µM
- GI50 [10]: > 100 µM (inactive)
- GI50 [11]: > 100 µM (inactive)
- GI50 [12]: > 100 µM (inactive)
- GI50 [13]: > 100 µM (inactive)
- GI50 [15]: > 100 µM (inactive)
- GI50 [16]: > 100 µM (inactive)
- GI50 [17]: > 100 µM (inactive)
- GI50 [18]: > 100 µM (inactive)
- GI50 [19]: > 100 µM (inactive)
- GI50 [20]: > 100 µM (inactive)
- GI50 [21]: > 100 µM (inactive)
- GI50 [22]: > 100 µM (inactive)
- GI50 [23]: > 100 µM (inactive)
- GI50 [24]: > 100 µM (inactive)
- GI50 [25]: > 100 µM (inactive)
- GI50 [26]: > 100 µM (inactive)
- GI50 [27]: > 100 µM (inactive)
- GI50 [28]: > 100 µM (inactive)
- GI50 [29]: > 100 µM (inactive)
- GI50 [30]: > 100 µM (inactive)
- GI50 [31]: > 100 µM (inactive)
- GI50 [32]: > 100 µM (inactive)
- GI50 [56]: > 100 µM (inactive)
- GI50 [33]: > 100 µM (inactive)
- GI50 [35]: > 100 µM (inactive)
- GI50 [36]: > 100 µM (inactive)
- GI50 [37]: > 100 µM (inactive)
- GI50 [38]: > 100 µM (inactive)
- GI50 [57]: > 100 µM (inactive)
- GI50 [39]: > 100 µM (inactive)
- GI50 [41]: > 100 µM (inactive)
- GI50 [42]: > 100 µM (inactive)
- GI50 [43]: > 100 µM (inactive)
- GI50 [44]: > 100 µM (inactive)
- GI50 [45]: 9.31 µM (inactive)
- GI50 [46]: > 100 µM (inactive)
- GI50 [47]: > 100 µM (inactive)
- GI50 [48]: > 100 µM (inactive)
- GI50 [49]: > 100 µM (inactive)
- GI50 [50]: > 100 µM (inactive)
- GI50 [51]: > 100 µM (inactive)
- GI50 [52]: > 100 µM (inactive)

SMILES: CN(C)C1COC2Cc3ccccc3C1O2 (stereo unspecified)
- GI50 [3]: > 100 µM (inactive)
- GI50 [53]: > 100 µM (inactive)
- GI50 [4]: > 100 µM (inactive)
- GI50 [9]: > 100 µM (inactive)
- GI50 [55]: > 100 µM
- GI50 [12]: > 100 µM (inactive)
- GI50 [13]: > 100 µM (inactive)
- GI50 [16]: > 100 µM (inactive)
- GI50 [18]: > 100 µM (inactive)
- GI50 [19]: > 100 µM (inactive)
- GI50 [26]: > 100 µM (inactive)
- GI50 [31]: > 100 µM (inactive)
- GI50 [32]: > 100 µM (inactive)
- GI50 [56]: > 100 µM (inactive)
- GI50 [35]: > 100 µM (inactive)
- GI50 [36]: > 100 µM (inactive)
- GI50 [37]: > 100 µM (inactive)
- GI50 [41]: > 100 µM (inactive)
- GI50 [42]: > 100 µM (inactive)
- GI50 [45]: > 100 µM (inactive)
- GI50 [48]: > 100 µM (inactive)

SMILES: COc1ccc(/C=N/Nc2nc3ccccc3c(=O)n2-c2ccccc2)c(OCc2ccccc2)c1
- GI50 [1]: > 100 µM (inactive)
- GI50 [2]: > 100 µM (inactive)
- GI50 [3]: > 100 µM (inactive)
- GI50 [53]: > 100 µM (inactive)
- GI50 [4]: 34.8 µM (inactive)
- GI50 [5]: > 100 µM (inactive)
- GI50 [6]: > 100 µM (inactive)
- GI50 [7]: > 100 µM (inactive)
- GI50 [8]: 33.9 µM (inactive)
- GI50 [54]: > 100 µM (inactive)
- GI50 [9]: > 100 µM (inactive)
- GI50 [55]: > 100 µM
- GI50 [10]: > 100 µM (inactive)
- GI50 [11]: > 100 µM (inactive)
- GI50 [12]: 19.3 µM (inactive)
- GI50 [13]: > 100 µM (inactive)
- GI50 [15]: > 100 µM (inactive)
- GI50 [16]: > 100 µM (inactive)
- GI50 [17]: > 100 µM (inactive)
- GI50 [18]: > 100 µM (inactive)
- GI50 [19]: 83.9 µM (inactive)
- GI50 [20]: 0.226 µM (active)
- GI50 [21]: 88.7 µM (inactive)
- GI50 [22]: > 100 µM (inactive)
- GI50 [23]: > 100 µM (inactive)
- GI50 [24]: > 100 µM (inactive)
- GI50 [25]: > 100 µM (inactive)
- GI50 [26]: > 100 µM (inactive)
- GI50 [27]: > 100 µM (inactive)
- GI50 [28]: > 100 µM (inactive)
- GI50 [29]: > 100 µM (inactive)
- GI50 [30]: > 100 µM (inactive)
- GI50 [31]: > 100 µM (inactive)
- GI50 [32]: > 100 µM (inactive)
- GI50 [56]: > 100 µM (inactive)
- GI50 [33]: 35.6 µM (inactive)
- GI50 [35]: > 100 µM (inactive)
- GI50 [36]: > 100 µM (inactive)
- GI50 [37]: > 100 µM (inactive)
- GI50 [38]: 14.5 µM (inactive)
- GI50 [57]: > 100 µM (inactive)
- GI50 [39]: 0.0656 µM (active)
- GI50 [40]: > 100 µM (inactive)
- GI50 [41]: > 100 µM (inactive)
- GI50 [42]: > 100 µM (inactive)
- GI50 [43]: > 100 µM (inactive)
- GI50 [45]: > 100 µM (inactive)
- GI50 [46]: > 100 µM (inactive)
- GI50 [47]: > 100 µM (inactive)
- GI50 [48]: > 100 µM (inactive)
- GI50 [49]: > 100 µM (inactive)
- GI50 [50]: > 100 µM (inactive)
- GI50 [51]: 70.6 µM (inactive)
- GI50 [52]: > 100 µM (inactive)
